For this assay, the target named is Dihydrofolate reductase (Lacticaseibacillus casei, UniProt P00381). Put plainly: Inhibitory activity against dihydrofolate reductase (DHFR) from Lactobacillus casei (expressed as log 1/Kiapp).
Sequence of Dihydrofolate reductase (P00381 whole entry): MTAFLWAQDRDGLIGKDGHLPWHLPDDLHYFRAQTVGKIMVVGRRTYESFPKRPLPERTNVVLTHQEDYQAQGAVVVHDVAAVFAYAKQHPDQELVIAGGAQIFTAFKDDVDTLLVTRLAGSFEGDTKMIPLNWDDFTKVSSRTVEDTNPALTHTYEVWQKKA
For `Nc1ncc(Cc2cc(O)cc(O)c2)c(N)n1`, the Ki was 417000 nM. To `Nc1ncc(Cc2ccccc2)c(N)n1` belongs 6310 nM; to `COCCOc1cccc(Cc2cnc(N)nc2N)c1`, 759 nM. `Nc1ncc(Cc2ccc(O)c(O)c2)c(N)n1` yielded a Ki of 1440 nM. For the molecule `COCCOc1ccc(Cc2cnc(N)nc2N)cc1OCCOC`, the Ki amounted to 309 nM.

The molecule `CCCCCCOc1ccc(Cc2cnc(N)nc2N)cc1` displayed a Ki of 1860 nM. To `Cc1cccc(Cc2cnc(N)nc2N)c1` belongs 1660 nM; to `Nc1ncc(Cc2cccc(F)c2)c(N)n1`, 4170 nM.

Turning to `Nc1ncc(Cc2ccc([N+](=O)[O-])cc2)c(N)n1`, the Ki came to 1000 nM. To `Nc1ncc(Cc2cccc(Br)c2)c(N)n1` belongs 589 nM; to `Nc1ncc(Cc2ccc(F)cc2)c(N)n1`, 2140 nM. For the molecule `Nc1ncc(Cc2cccc(Cl)c2)c(N)n1`, the Ki stood at 1260 nM. For `Nc1ncc(Cc2ccc(Cl)cc2)c(N)n1`, the Ki was 646 nM. Molecule `Nc1ncc(Cc2cccc(C(F)(F)F)c2)c(N)n1` showed a Ki of 692 nM. The molecule `COc1ccc(Cc2cnc(N)nc2N)cc1C(F)(F)F` had a Ki of 50 nM.

For `Nc1ccc(Cc2cnc(N)nc2N)cc1`, the Ki amounted to 3390 nM. For the molecule `Nc1ncc(Cc2cc(CO)cc(CO)c2)c(N)n1`, the Ki was found to be 1860 nM.

As to `Nc1ncc(Cc2cccc(CO)c2)c(N)n1`, the Ki is 2140 nM.

For `CS(=O)(=O)Oc1cccc(Cc2cnc(N)nc2N)c1`, the Ki was 1200 nM. Molecule `COCCOc1ccc(Cc2cnc(N)nc2N)cc1` yielded a Ki of 891 nM. Molecule `CN(C)c1ccc(Cc2cnc(N)nc2N)cc1` registered a Ki of 676 nM. `Nc1ncc(Cc2ccc(OC(F)(F)F)cc2)c(N)n1` yielded a Ki of 501 nM.

As for `CCCCOCc1cccc(Cc2cnc(N)nc2N)c1`, the Ki is 3240 nM. To `CC(=O)Nc1ccc(Cc2cnc(N)nc2N)cc1` belongs 891 nM. To `NC(=O)COc1cccc(Cc2cnc(N)nc2N)c1` belongs 1100 nM. To `Nc1ncc(Cc2cccc(I)c2)c(N)n1` belongs 214 nM; to `COCc1cccc(Cc2cnc(N)nc2N)c1`, 2290 nM; to `Nc1ncc(Cc2ccc(Br)cc2)c(N)n1`, 617 nM. The molecule `Cc1ccc(Cc2cnc(N)nc2N)cc1` came in with a Ki of 1480 nM. Consider `CC(=O)Nc1ccc(Cc2cnc(N)nc2N)cc1[N+](=O)[O-]`, for which the Ki came out at 1000 nM. To `CCCCOc1ccc(Cc2cnc(N)nc2N)cc1` belongs 427 nM; to `Nc1ncc(Cc2cccc(O)c2)c(N)n1` [3-(2,4-Diamino-pyrimidin-5-ylmethyl)-phenol], 1510 nM; to `CCCCCCCOc1ccc(Cc2cnc(N)nc2N)cc1` [5-(4-Heptyloxy-benzyl)-pyrimidine-2,4-diamine], 4370 nM. To `COCCOc1c(OC)cc(Cc2cnc(N)nc2N)cc1OC` [5-[3,5-Dimethoxy-4-(2-methoxy-ethoxy)-benzyl]-pyrimidine-2,4-diamine] belongs 550 nM. To `COc1ccc(Cc2cnc(N)nc2N)cc1OC` [Diaveridine] belongs 120 nM.

Source of the values: BindingDB's records for doi:10.1021/jm00349a003 (1982).
